# Results from patent US8222240B2, “Use of substituted cyclopropane acid derivatives for producing drugs for use in the treatment of metabolic syndrome” (Sanofi-Aventis Deutschland GmbH, priority 2004, dated 2012).
# Key:
# [1] = biological target: T1, GPCR HM74A (niacin receptor) (Homo sapiens, UniProt Q8TDS4); assay: FLIPR in vitro functional assay, intracellular Ca2+ in recombinant HEK293 cells expressing HM74A and hybrid G-protein; type: cell-based; conditions: relative to 1 μM niacin = 100%
# T1 construct: expressed in transfected cells; host or cells: HEK293
# Experimental: in vitro functional assays with recombinant cells; function-testing assays were carried out by means of the FLIPR technique (“Fluorescence Imaging Plate Reader”, Molecular Devices Corp.).
# For the investigations, cells were seeded into 96-well microtiter plates (60 000 cells/well) and allowed to grow over night. The medium was removed and the cells were incubated in buffer which contained the fluorescent dye Fluo-4. After this loading with dye, the cells were washed, test substance was added, and changes in the intracellular Ca^2+ concentration were measured in the FLIPR apparatus.
# lipolysis = assay: Inhibition of lipolysis on the whole animal (plasma FFA, glycerol, triglycerides after p.o. administration); type: in vivo, Wistar rats; design: FFA / Glycerol / Triglyceride: unit not given here; conditions: for FFA / Glycerol / Triglyceride: 3 mg/kg po, Wistar rats
# Experimental: The effect was tested on the whole animal (mouse, rat, hamster or dog), after a fasting period (e.g. of about 16 hours the substance is administered (e.g. p.o., iv., i.p., s.c.) and, with or without additional stimulation of endogenous lipolysis (e.g. by a bolus injection of 2 mg/kg i.p. isoprenaline), the effect of the test substance on lipolysis was determined on the basis of the liberated free fatty acids (FFA), glycerol and triglycerides by obtaining a blood sample (e.g. by retroorbital blood sampling) e.g. 15 min, 30, 60, 120 etc minutes after p.o. administration, and analyzing by standard methods of clinical chemistry (e.g. L. Thomas: Labor und Diagnose, 2nd edition, Medizinische Verlagsgesellschaft, Marburg/L. 1984; ISBN 3-921320-10-9)). The inhibition of lipolysis by the inhibitors is analyzed by comparing with the rate of lipolysis in correspondingly treated control animals.
# T1 sequence (Q8TDS4 whole entry): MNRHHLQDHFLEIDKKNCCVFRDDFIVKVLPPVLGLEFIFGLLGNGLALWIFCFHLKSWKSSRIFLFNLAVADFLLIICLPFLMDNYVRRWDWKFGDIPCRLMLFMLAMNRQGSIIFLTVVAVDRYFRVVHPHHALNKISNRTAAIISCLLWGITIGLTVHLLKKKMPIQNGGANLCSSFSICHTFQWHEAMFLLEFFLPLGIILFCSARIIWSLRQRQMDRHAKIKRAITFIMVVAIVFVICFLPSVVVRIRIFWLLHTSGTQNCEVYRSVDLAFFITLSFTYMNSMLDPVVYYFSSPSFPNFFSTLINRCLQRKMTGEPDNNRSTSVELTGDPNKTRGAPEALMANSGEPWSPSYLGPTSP
SMILES,EC50 [1] [nM],other results
"COC(=O)[C@@H]1C[C@H]1C(=O)O (racemic) [Example 7, 1RS-Methoxycarbonyl-2RS-hydroxycarbonyl-cyclopropane]",630,–
"COC(=O)[C@H]1[C@H](C(=O)O)C1(C)C (racemic) [Example 9, 1RS-Methoxycarbonyl-2RS-hydroxycarbonyl-3,3-dimethyl-cyclopropane]",> 30000,–
"CCOC(=O)[C@@H]1C[C@H]1C(=O)O (racemic) [Example 10, 1RS-Ethoxycarbonyl-2RS-hydroxycarbonyl-cyclopropane]",1480,–
"CCCOC(=O)[C@@H]1C[C@H]1C(=O)O (racemic) [Example 11, 1RS-Propoxycarbonyl-2RS-hydroxycarbonyl-cyclopropane]",2160,–
"CCCCOC(=O)[C@@H]1C[C@H]1C(=O)O (racemic) [Example 12, 1RS-Butoxycarbonyl-2RS-hydroxycarbonyl-cyclopropane]",670,–
"CCCCCOC(=O)[C@@H]1C[C@H]1C(=O)O (racemic) [Example 13, 1RS-Pentoxycarbonyl-2RS-hydroxycarbonyl-cyclopropane]",1610,–
"CC(C)OC(=O)[C@@H]1C[C@H]1C(=O)O (racemic) [Example 14, 1RS-iso-Propoxycarbonyl-2RS-hydroxycarbonyl-cyclopropane]",> 30000,–
"O=C(O)[C@@H]1C[C@H]1C(=O)OCC1CCCCC1 (racemic) [Example 15, 1RS-Cyclohexyl-methyloxycarbonyl-2RS-hydroxycarbonyl-cyclopropane]",> 30000,–
"CC(C)COC(=O)[C@@H]1C[C@H]1C(=O)O (racemic) [Example 16, 1RS-isobutoxycarbonyl-2RS-hydroxycarbonyl-cyclopropane]",> 30000,–
"C=CCOC(=O)[C@@H]1C[C@H]1C(=O)O (racemic) [Example 17, 1RS-allyloxycarbonyl-2RS-hydroxycarbonyl-cyclopropane]",2830,–
"C#CCOC(=O)[C@@H]1C[C@H]1C(=O)O (racemic) [Example 18, 1RS-Propargyloxycarbonyl-2RS-hydroxycarbonyl-cyclopropane]",1510,–
"CC#CCOC(=O)[C@@H]1C[C@H]1C(=O)O (racemic) [Example 19, 1RS-Butinyloxycarbonyl-2RS-hydroxycarbonyl-cyclopropane]",1630,–
"CC(C)(C)OC(=O)[C@H]1[C@H](C(=O)O)C1(C)C (racemic) [Example 20, 1RS-tertButoxycarbonyl-2RS-hydroxycarbonyl-3,3-dimethyl-cyclopropane]",> 30000,–
"COC(=O)[C@H]1C[C@@H]1C(=O)OC (relative stereo) [Example 5, Dimethyl trans-1,2-cyclopropanedicarboxylate]",> 30000,"FFA (lipolysis; Time 0): 0.47; Glycerol (lipolysis; Time 0): 87; Triglyceride (lipolysis; Time 0): 0.45; FFA (lipolysis; Time 15): 0.17; Glycerol (lipolysis; Time 15): 39; Triglyceride (lipolysis; Time 15): 0.45; FFA (lipolysis; Time 30): 0.13; Glycerol (lipolysis; Time 30): 33; Triglyceride (lipolysis; Time 30): 0.26; FFA (lipolysis; Time 60): 0.11; Glycerol (lipolysis; Time 60): 28; Triglyceride (lipolysis; Time 60): 0.15; FFA (lipolysis; Time 120): 0.25; Glycerol (lipolysis; Time 120): 57; Triglyceride (lipolysis; Time 120): 0.13; lipolysis (reduction in free fatty acids (FFA), glycerol and triglycerides) (lipolysis; doses of from 0.3 to 30 mg/kg po): distinctly reduced"
"COC(=O)[C@H]1C[C@]1(C)C(=O)OC (relative stereo) [Example 6, Dimethyl 1-methyl-trans-cyclopropane-1,2-dicarboxylate]",> 30000,–
"CCOC(=O)[C@@H]1C[C@H]1C(=O)OCC (relative stereo) [Example 8, Diethyl trans-1,2-cyclopropanedicarboxylate]",> 30000,–
"COC(=O)[C@@H]1C[C@H]1C(=O)O [Example 1, 1R-Methoxycarbonyl-2R-hydroxycarbonyl-cyclopropane]",70,–
"COC(=O)[C@@H]1C[C@H]1C(=O)O [Example 2, 1R-Methoxycarbonyl-2R-hydroxycarbonyl-cyclopropane]",130,–
"COC(=O)[C@@H]1C[C@H]1C(=O)O [Example 3, 1R-Methoxycarbonyl-2R-hydroxycarbonyl-cyclopropane]",190,–
"COC(=O)[C@H]1C[C@H]1C(=O)OC [Example 4, Dimethyl cis-1,2-cyclopropanedicarboxylate]",> 30000,–
